These results are taken from patent publication US9901582B2, “Polymorphisms in ABCB1 associated with a lack of clinical response to medicaments” (Max-Planck-Gesellschaft zur Förderung der Wisenschaften e. …, priority 2007, dated 2018).

One data set addresses ABCB1 (Homo sapiens, UniProt P08183). To be noted: cited from earlier work; for Inducer: inducer of ABCB1.
The test system of data set [1] is P-gp. The conditions noted are these: after single administration, same mouse model; cited from earlier work.
For data set [2], the system named is P-gp. The conditions noted are these: mouse.
A further data set relates to ABCB1 gene. To be noted: human, in vivo. On the procedure: The antidepressant plasma concentration was monitored to assure clinically efficient drug levels.
To this end, we created the residuals of linear regression with the dependent variable drug dose or plasma concentration and the independent variables age and gender. These residuals and SNP genotyping data were tested in an ANOVA analysis for statistical differences between the genotypes. Empiric p-values were calculated by applying 10^6 permutations (residuals randomly redistributed over the genotypes). Fisher's product method (FPM) includes the residuals of the dose or plasma concentration variables and the genotype variables from the SNPs rs2235067, rs4148740, rs2032583, rs4148739, rs11983225, rs2235040, rs12720067, rs7787082, rs10248420, rs10280101 and rs2235015.

The test system of data set [3] is P-gp. Description: Organ and plasma concentrations of antidepressants in abcb1ab(−/−) knockout mice versus FVB/N wild-type controls (blood-organ barrier function). To be noted: for brain concentrations, times higher in the mutant mice compared to wild-type littermates: 11 days, s.c. osmotic infusion pumps; for cerebrum concentration, abcb1ab (−/−) / kidney concentration, abcb1ab (−/−) / liver concentration, abcb1ab (−/−) / lung concentration, abcb1ab (−/−) / plasma concentration, abcb1ab (−/−) / spleen concentration, abcb1ab (−/−) / testes concentration, abcb1ab (−/−): abcb1ab(−/−) mice; for cerebrum concentration, abcb1ab (−/−) / kidney concentration, abcb1ab (−/−) / liver concentration, abcb1ab (−/−) / lung concentration, abcb1ab (−/−) / plasma concentration, abcb1ab (−/−) / spleen concentration, abcb1ab (−/−) / testes concentration, abcb1ab (−/−) / cerebrum concentration, control / kidney concentration, control / liver concentration, control / lung concentration, control / plasma concentration, control / spleen concentration, control / testes concentration, control: after 11 days s.c. via osmotic pumps; for penetration into the brain (organ/plasma concentration ratio), times higher in animals lacking P-gp than in control animals / ratio (−/−)/(+/+), cerebrum / ratio (−/−)/(+/+), kidney / ratio (−/−)/(+/+), liver / ratio (−/−)/(+/+), lung / ratio (−/−)/(+/+), plasma / ratio (−/−)/(+/+), spleen / ratio (−/−)/(+/+), testes / differences in testes/plasma ratio between knockout and control: 11 days s.c.; for penetration into the brain (organ/plasma concentration ratio), times higher in animals lacking P-gp than in control animals / differences in testes/plasma ratio between knockout and control: FIG. 1; for ratio (−/−)/(+/+), cerebrum: cerebrum concentration; for ratio (−/−)/(+/+), cerebrum / ratio (−/−)/(+/+), kidney / ratio (−/−)/(+/+), liver / ratio (−/−)/(+/+), lung / ratio (−/−)/(+/+), plasma / ratio (−/−)/(+/+), spleen / ratio (−/−)/(+/+), testes: knockout/control; for ratio (−/−)/(+/+), kidney: kidney concentration; for ratio (−/−)/(+/+), liver: liver concentration; for ratio (−/−)/(+/+), lung: lung concentration; for ratio (−/−)/(+/+), plasma: plasma concentration; for ratio (−/−)/(+/+), spleen: spleen concentration; for ratio (−/−)/(+/+), testes: testes concentration; for cerebrum concentration, control / kidney concentration, control / liver concentration, control / lung concentration, control / plasma concentration, control / spleen concentration, control / testes concentration, control: wild-type control mice.

[4] abbreviates: male, FVB/N wild-type, in vivo, sc, 11 days.
Setting [5] is: male, abcb1ab(−/−) on FVB/N background versus FVB/N wild-type, in vivo, sc, 11 days.
Setting [6] is: male, abcb1ab(−/−) on FVB/N background, in vivo, sc, 11 days.

Structures are written as SMILES. Where two headings read alike, the source gives them in different places.

Sequence of ABCB1 (P08183 whole entry): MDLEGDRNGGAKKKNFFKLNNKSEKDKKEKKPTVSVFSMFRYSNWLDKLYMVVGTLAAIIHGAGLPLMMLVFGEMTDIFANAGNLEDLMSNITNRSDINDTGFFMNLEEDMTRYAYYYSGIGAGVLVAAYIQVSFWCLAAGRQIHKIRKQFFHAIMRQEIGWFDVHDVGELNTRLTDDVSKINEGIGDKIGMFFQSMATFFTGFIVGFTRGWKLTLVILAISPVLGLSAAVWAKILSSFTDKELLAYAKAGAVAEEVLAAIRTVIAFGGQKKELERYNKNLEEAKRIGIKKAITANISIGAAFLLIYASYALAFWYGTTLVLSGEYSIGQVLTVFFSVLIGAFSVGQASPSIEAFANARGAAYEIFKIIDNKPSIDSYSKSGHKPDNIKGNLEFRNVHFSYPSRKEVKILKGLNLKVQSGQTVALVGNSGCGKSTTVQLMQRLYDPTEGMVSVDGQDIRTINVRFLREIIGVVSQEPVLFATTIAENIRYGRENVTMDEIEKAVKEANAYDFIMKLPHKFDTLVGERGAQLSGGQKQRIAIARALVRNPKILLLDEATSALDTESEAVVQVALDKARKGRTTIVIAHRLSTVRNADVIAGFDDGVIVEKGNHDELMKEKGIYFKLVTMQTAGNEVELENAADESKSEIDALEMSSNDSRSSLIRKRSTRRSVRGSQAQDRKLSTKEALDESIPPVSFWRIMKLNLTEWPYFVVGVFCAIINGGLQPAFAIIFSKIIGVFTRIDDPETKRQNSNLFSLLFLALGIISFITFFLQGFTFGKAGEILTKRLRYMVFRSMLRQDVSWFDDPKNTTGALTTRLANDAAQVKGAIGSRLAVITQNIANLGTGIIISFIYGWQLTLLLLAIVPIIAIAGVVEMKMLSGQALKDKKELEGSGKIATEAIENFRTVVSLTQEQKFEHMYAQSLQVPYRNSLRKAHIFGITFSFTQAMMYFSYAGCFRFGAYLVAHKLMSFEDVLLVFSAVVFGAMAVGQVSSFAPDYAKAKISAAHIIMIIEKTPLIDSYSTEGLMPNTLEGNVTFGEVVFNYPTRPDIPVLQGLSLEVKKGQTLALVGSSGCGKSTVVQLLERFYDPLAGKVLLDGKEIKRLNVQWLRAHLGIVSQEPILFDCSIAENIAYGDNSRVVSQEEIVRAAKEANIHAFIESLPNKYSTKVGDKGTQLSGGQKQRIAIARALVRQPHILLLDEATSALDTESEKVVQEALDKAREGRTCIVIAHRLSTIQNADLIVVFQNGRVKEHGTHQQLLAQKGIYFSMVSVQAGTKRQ

With `Cc1ncc2n1-c1ccc(Cl)cc1C(c1ccccc1F)=NC2` [Midazolam], the Inhibitor entry at ABCB1 is recorded as “(x)”.
`CN(C)CCC=C1c2ccccc2CCc2ccccc21` [Amitriptyline]: the “P-gp substrate status at the blood-brain barrier, earlier studies” value (“P-gp substrate status … earlier studies” below) in the data set on P-gp [1] is “substrates of P-gp at the blood-brain barrier”.
As for `Fc1ccc([C@@H]2CCNC[C@H]2COc2ccc3c(c2)OCO3)cc1` [Paroxetine], the “P-gp substrate status … earlier studies” value in the data set with P-gp [1] is “substrates of P-gp at the blood-brain barrier”.
As to `O=c1n(CCCN2CCN(c3cccc(Cl)c3)CC2)nc2ccccn12` [Trazodone], the Inducer result on ABCB1 is on record as “(x)”.
With `CN(C)CCCC1(c2ccc(F)cc2)OCc2cc(C#N)ccc21` (centres unmarked) [Citalopram], the “P-gp substrate status … earlier studies” value in the data set with P-gp [1] is reported as “substrates of P-gp at the blood-brain barrier”. In the data set with P-gp [2] (setting [4]), the “cerebrum concentration, control” value is 158.27 ng/g or ml; the “kidney concentration, control” value was 962.29 ng/g or ml; the “liver concentration, control” value is given as 238.02 ng/g or ml; the “lung concentration, control” value was 1238.71 ng/g or ml. In the data set with P-gp [2] (setting [4]), the “plasma concentration, control” value is 106.71 ng/g or ml; the “spleen concentration, control” value is recorded as 446.96 ng/g or ml; the “testes concentration, control” value is listed as 428.19 ng/g or ml. The “brain concentrations, times higher in the mutant mice compared to wild-type littermates” value with P-gp [2] (setting [5]) came out at 3.0 times. Also, in the data set on P-gp [2] (setting [6]), the “cerebrum concentration, abcb1ab (−/−)” value is recorded as 480.93 ng/g or ml; the “kidney concentration, abcb1ab (−/−)” value was 795.74 ng/g or ml; the “liver concentration, abcb1ab (−/−)” value was 240.33 ng/g or ml; the “lung concentration, abcb1ab (−/−)” value was 1238.47 ng/g or ml. Also, in the data set with P-gp [2] (setting [6]), the “plasma concentration, abcb1ab (−/−)” value is on record as 89.37 ng/g or ml; the “spleen concentration, abcb1ab (−/−)” value is reported as 468.29 ng/g or ml; the “testes concentration, abcb1ab (−/−)” value is given as 687.92 ng/g or ml. Also, the “P-gp substrate status at the BBB” value in the data set with P-gp [2] is “substrates of P-gp at the BBB”. The “genotype-dependent differences in plasma levels of patients” value in the data set on ABCB1 gene is “small significant difference”.
Consider `CN(C)CC(c1ccc(O)cc1)C1(O)CCCCC1` [D-Venlafaxine, O-desmethyl venlafaxine], for which, in the data set on P-gp [3], the “brain concentrations, times higher in the mutant mice compared to wild-type littermates” value worked out at 4.1 times; the “cerebrum concentration, abcb1ab (−/−)” value is 36.99 ng/g or ml; the “kidney concentration, abcb1ab (−/−)” value is reported as 127.32 ng/g or ml; the “liver concentration, abcb1ab (−/−)” value was 88.22 ng/g or ml. In the data set on P-gp [3], the “lung concentration, abcb1ab (−/−)” value is 44.91 ng/g or ml; the “plasma concentration, abcb1ab (−/−)” value is listed as 5.98 ng/g or ml; the “spleen concentration, abcb1ab (−/−)” value was 33.80 ng/g or ml; the “testes concentration, abcb1ab (−/−)” value is 39.19 ng/g or ml. In addition, in the data set on P-gp [3], the “penetration into the brain (organ/plasma concentration ratio), times higher in animals lacking P-gp than in control animals” value worked out at 3.6 times; the “ratio (−/−)/(+/+), cerebrum” value is 4.1; the “ratio (−/−)/(+/+), kidney” value worked out at 1.2; the “ratio (−/−)/(+/+), liver” value came out at 1.1. Besides, in the data set with P-gp [3], the “ratio (−/−)/(+/+), lung” value is on record as 0.9; the “ratio (−/−)/(+/+), plasma” value is 1.1; the “ratio (−/−)/(+/+), spleen” value was 1.1; the “ratio (−/−)/(+/+), testes” value was 1.3. For the same molecule, in the data set on P-gp [3], the “differences in testes/plasma ratio between knockout and control” value is “smaller but still significant differences”; the “cerebrum concentration, control” value is on record as 8.97 ng/g or ml; the “kidney concentration, control” value is 107.88 ng/g or ml; the “liver concentration, control” value was 83.15 ng/g or ml. In addition, in the data set on P-gp [3], the “lung concentration, control” value is 50.63 ng/g or ml; the “plasma concentration, control” value is 5.50 ng/g or ml; the “spleen concentration, control” value is recorded as 29.42 ng/g or ml; the “testes concentration, control” value is given as 30.18 ng/g or ml.
On to `O=C(CCCN1CCC(O)(c2ccc(Cl)cc2)CC1)c1ccc(F)cc1` [Haloperidol], for which the Inhibitor entry at ABCB1 (inhibitor of ABCB1) was “(x)”.
For `CCN(CC)CCCC(C)Nc1ccnc2cc(Cl)ccc12` (centres unmarked) [Chloroquine], the Inhibitor result on ABCB1 (inhibitor of ABCB1) is reported as “(x)”.
`CN1CCN2c3ncccc3Cc3ccccc3C2C1` (centres unmarked) [Mirtazapine]: in the data set on P-gp [2] (setting [4]), the “cerebrum concentration, control” value is reported as 34.90 ng/g or ml; the “intestine concentration, control” value was 19.96 ng/g or ml; the “kidney concentration, control” value is given as 70.93 ng/g or ml; the “liver concentration, control” value is 12.39 ng/g or ml. Also, in the data set with P-gp [2] (setting [4]), the “lung concentration, control” value is listed as 61.47 ng/g or ml; the “plasma concentration, control” value was 7.66 ng/g or ml; the “spleen concentration, control” value is on record as 67.54 ng/g or ml; the “testes concentration, control” value was 61.22 ng/g or ml. Further, in the data set on P-gp [2] (setting [5]), the “ratio (−/−)/(+/+), cerebrum” value worked out at 1.5; the “ratio (−/−)/(+/+), intestine” value is 1.2; the “ratio (−/−)/(+/+), kidney” value was 1.3; the “ratio (−/−)/(+/+), liver” value is listed as 1.7. In addition, in the data set on P-gp [2] (setting [5]), the “ratio (−/−)/(+/+), lung” value is 1.7; the “ratio (−/−)/(+/+), plasma” value came out at 1.5; the “ratio (−/−)/(+/+), spleen” value is reported as 1.3; the “ratio (−/−)/(+/+), testes” value is 1.8. Besides, in the data set on P-gp [2] (setting [6]), the “cerebrum concentration, abcb1ab (−/−)” value is 51.31 ng/g or ml; the “intestine concentration, abcb1ab (−/−)” value was 24.58 ng/g or ml; the “kidney concentration, abcb1ab (−/−)” value was 91.22 ng/g or ml; the “liver concentration, abcb1ab (−/−)” value is on record as 20.59 ng/g or ml. For the same molecule, in the data set on P-gp [2] (setting [6]), the “lung concentration, abcb1ab (−/−)” value was 105.36 ng/g or ml; the “plasma concentration, abcb1ab (−/−)” value is 11.17 ng/g or ml; the “spleen concentration, abcb1ab (−/−)” value is 86.19 ng/g or ml; the “testes concentration, abcb1ab (−/−)” value is 110.29 ng/g or ml. For the same molecule, the “P-gp substrate status at the BBB” value in the data set with P-gp [2] is reported as “not influenced by P-gp”. Also, in the data set with P-gp [2] (in vivo, sc), the “differences in testes/plasma ratio between knockout and control” value was “not”.
As for `COc1ccc(C(CN(C)C)C2(O)CCCCC2)cc1` (centres unmarked) [Venlafaxine], the “P-gp substrate status … earlier studies” value with P-gp [1] is on record as “substrates of P-gp at the blood-brain barrier”. In the data set on P-gp [3], the “brain concentrations, times higher in the mutant mice compared to wild-type littermates” value came out at 1.7 times; the “cerebrum concentration, abcb1ab (−/−)” value is on record as 456.32 ng/g or ml; the “kidney concentration, abcb1ab (−/−)” value was 1054.88 ng/g or ml; the “liver concentration, abcb1ab (−/−)” value is 323.22 ng/g or ml. Moreover, in the data set with P-gp [3], the “lung concentration, abcb1ab (−/−)” value is on record as 672.59 ng/g or ml; the “plasma concentration, abcb1ab (−/−)” value was 70.57 ng/g or ml; the “spleen concentration, abcb1ab (−/−)” value is 564.20 ng/g or ml; the “testes concentration, abcb1ab (−/−)” value was 842.61 ng/g or ml. Also, in the data set with P-gp [3], the “penetration into the brain (organ/plasma concentration ratio), times higher in animals lacking P-gp than in control animals” value amounted to 1.8 times; the “ratio (−/−)/(+/+), cerebrum” value is reported as 1.7; the “ratio (−/−)/(+/+), kidney” value was 1.0; the “ratio (−/−)/(+/+), liver” value is 1.0. Also, in the data set on P-gp [3], the “ratio (−/−)/(+/+), lung” value stood at 0.9; the “ratio (−/−)/(+/+), plasma” value is 1.0; the “ratio (−/−)/(+/+), spleen” value was determined as 1.0; the “ratio (−/−)/(+/+), testes” value amounted to 1.2. Besides, in the data set with P-gp [3], the “differences in testes/plasma ratio between knockout and control” value is “smaller but still significant differences”; the “cerebrum concentration, control” value is given as 261.14 ng/g or ml; the “kidney concentration, control” value was 1035.27 ng/g or ml; the “liver concentration, control” value was 314.59 ng/g or ml. Further, in the data set on P-gp [3], the “lung concentration, control” value is listed as 747.38 ng/g or ml; the “plasma concentration, control” value is 71.37 ng/g or ml; the “spleen concentration, control” value is reported as 581.95 ng/g or ml; the “testes concentration, control” value was 715.92 ng/g or ml. The “P-gp substrate status at the BBB” value in the data set on P-gp [3] (this study, administration over 11 days) is on record as “substrates of P-gp at the BBB”.
As to `CCc1nn(CCCN2CCN(c3cccc(Cl)c3)CC2)c(=O)n1CCOc1ccccc1` [Nefazodone], the Inducer entry on ABCB1 is “(x)”.
